Calls of active or inactive are those of the source. No cut-off for these calls is given here.
Columns and labels:
Albumin = Albumin (Homo sapiens, UniProt P02768); experiment: Binding affinity to HSA by ITC; type: ADME; conditions: isolated protein
HepG2 [1] = experiment: Antiproliferative activity against human HepG2 cells assessed as cell viability after 48 hrs by MTT assay; conditions: HepG2, 48 h
HEK293 = experiment: Antiproliferative activity against human HEK293 cells assessed as cell viability after 48 hrs by MTT assay; type: cell-based; conditions: HEK293, 48 h
HepG2 [2] = experiment: Induction of apoptosis in human HepG2 cells assessed as late apoptotic cells at IC50 after 24 hrs by Annexin V-FITC/propidium iodide staining-based flow cytometric analysis (reference value: 0.039%); type: functional
MCF7 [3] = experiment: Induction of apoptosis in human MCF7 cells assessed as viable cells at IC50 after 24 hrs by Annexin V-FITC/propidium iodide staining-based flow cytometric analysis (reference value: 98.4%); type: functional
MCF7 [4] = experiment: Induction of apoptosis in human MCF7 cells assessed as early apoptotic cells at IC50 after 24 hrs by Annexin V-FITC/propidium iodide staining-based flow cytometric analysis (reference value: 1.23%); type: functional
MCF7 [5] = experiment: Induction of apoptosis in human MCF7 cells assessed as late apoptotic cells at IC50 after 24 hrs by Annexin V-FITC/propidium iodide staining-based flow cytometric analysis (reference value: 0.077%); type: functional
MCF7 [6] = experiment: Induction of apoptosis in human MCF7 cells assessed as necrotic cells at IC50 after 24 hrs by Annexin V-FITC/propidium iodide staining-based flow cytometric analysis (reference value: 0.27%); type: functional
MDA-MB-435S [7] = experiment: Induction of apoptosis in human MDA-MB-435S cells assessed as viable cells at IC50 after 24 hrs by Annexin V-FITC/propidium iodide staining-based flow cytometric analysis (reference value: 98.8%); type: functional
MDA-MB-435S [8] = experiment: Induction of apoptosis in human MDA-MB-435S cells assessed as early apoptotic cells at IC50 after 24 hrs by Annexin V-FITC/propidium iodide staining-based flow cytometric analysis (reference value: 0.36%); type: functional
MDA-MB-435S [9] = experiment: Induction of apoptosis in human MDA-MB-435S cells assessed as late apoptotic cells at IC50 after 24 hrs by Annexin V-FITC/propidium iodide staining-based flow cytometric analysis (reference value: 0.18%); type: functional
MDA-MB-435S [10] = experiment: Induction of apoptosis in human MDA-MB-435S cells assessed as necrotic cells at IC50 after 24 hrs by Annexin V-FITC/propidium iodide staining-based flow cytometric analysis (reference value: 0.64%); type: functional
MDA-MB-435S [11] = experiment: Induction of ROS generation in human MDA-MB-435S cells at IC50 after 5 to 6 hrs by DCFDA staining-based spectroflourimetric analysis; type: functional, cell-based
MCF7 [12] = experiment: Antimigratory activity against human MCF7 cells at IC50 after 48 hrs by wound-healing assay; type: functional, cell-based
HepG2 [13] = experiment: Antimigratory activity against human HepG2 cells at IC50 after 48 hrs by wound-healing assay; type: functional, cell-based
[14] = molecular target: MAP kinase-activated protein kinase 2 (Homo sapiens) (UniProt P49137); experiment: Inhibition of MAPKAPK2 (unknown origin) at 10 uM after 60 mins by ADP-Glo luminescence assay
[15] = molecular target: Serine/threonine-protein kinase Chk1 (Homo sapiens) (UniProt O14757); experiment: Inhibition of CHK1 (unknown origin) at 10 uM after 60 mins by ADP-Glo luminescence assay
Sequence of Serine/threonine-protein kinase Chk1 (Homo sapiens) (O14757 whole entry): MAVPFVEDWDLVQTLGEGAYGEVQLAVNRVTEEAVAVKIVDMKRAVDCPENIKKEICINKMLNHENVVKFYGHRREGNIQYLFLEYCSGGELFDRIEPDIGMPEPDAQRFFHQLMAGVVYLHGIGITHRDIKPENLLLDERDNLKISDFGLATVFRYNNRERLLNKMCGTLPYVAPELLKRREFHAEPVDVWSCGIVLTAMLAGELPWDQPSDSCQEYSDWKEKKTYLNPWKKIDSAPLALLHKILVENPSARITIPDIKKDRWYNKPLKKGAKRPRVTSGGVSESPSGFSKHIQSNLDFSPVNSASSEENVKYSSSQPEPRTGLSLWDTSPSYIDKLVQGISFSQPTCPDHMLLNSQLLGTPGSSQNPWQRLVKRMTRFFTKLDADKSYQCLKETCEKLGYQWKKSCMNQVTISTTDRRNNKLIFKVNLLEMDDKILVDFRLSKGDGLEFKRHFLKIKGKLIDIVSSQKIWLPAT

[16] = molecular target: Serine/threonine-protein kinase Chk2 (Homo sapiens) (UniProt O96017); experiment: Inhibition of CHK2 (unknown origin) at 10 uM after 60 mins by ADP-Glo luminescence assay
Sequence of Serine/threonine-protein kinase Chk2 (Homo sapiens) (O96017 whole entry): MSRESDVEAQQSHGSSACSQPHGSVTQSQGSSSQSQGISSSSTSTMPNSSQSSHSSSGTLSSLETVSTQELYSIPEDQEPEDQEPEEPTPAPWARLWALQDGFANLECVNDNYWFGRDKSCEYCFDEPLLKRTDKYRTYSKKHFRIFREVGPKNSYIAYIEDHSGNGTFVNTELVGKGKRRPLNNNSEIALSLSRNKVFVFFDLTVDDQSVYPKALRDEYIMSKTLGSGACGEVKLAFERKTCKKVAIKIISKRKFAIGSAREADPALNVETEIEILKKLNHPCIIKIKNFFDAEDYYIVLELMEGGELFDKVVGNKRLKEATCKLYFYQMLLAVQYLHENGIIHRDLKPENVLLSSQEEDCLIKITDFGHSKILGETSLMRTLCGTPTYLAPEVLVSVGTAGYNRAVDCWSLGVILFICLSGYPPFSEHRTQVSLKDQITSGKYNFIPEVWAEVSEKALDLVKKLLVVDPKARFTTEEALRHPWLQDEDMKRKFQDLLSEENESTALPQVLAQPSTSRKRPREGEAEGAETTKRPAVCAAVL

[17] = molecular target: Serine/threonine-protein kinase MARK1 (Homo sapiens) (UniProt Q9P0L2); experiment: Inhibition of MARK1 (unknown origin) at 10 uM after 60 mins by ADP-Glo luminescence assay
[18] = molecular target: PAS domain-containing serine/threonine-protein kinase (Homo sapiens) (UniProt Q96RG2); experiment: Inhibition of PASK (unknown origin) at 10 uM after 60 mins by ADP-Glo luminescence assay
[19] = molecular target: Serine/threonine-protein kinase pim-1 (Homo sapiens) (UniProt P11309); experiment: Inhibition of PIM1 (unknown origin) at 10 uM after 60 mins by ADP-Glo luminescence assay
[20] = molecular target: Calcium/calmodulin-dependent protein kinase type II subunit alpha (Homo sapiens) (UniProt Q9UQM7); experiment: Inhibition of CAMK2 alpha (unknown origin) at 10 uM after 60 mins by ADP-Glo luminescence assay
Sequence of Calcium/calmodulin-dependent protein kinase type II subunit alpha (Homo sapiens) (Q9UQM7 whole entry): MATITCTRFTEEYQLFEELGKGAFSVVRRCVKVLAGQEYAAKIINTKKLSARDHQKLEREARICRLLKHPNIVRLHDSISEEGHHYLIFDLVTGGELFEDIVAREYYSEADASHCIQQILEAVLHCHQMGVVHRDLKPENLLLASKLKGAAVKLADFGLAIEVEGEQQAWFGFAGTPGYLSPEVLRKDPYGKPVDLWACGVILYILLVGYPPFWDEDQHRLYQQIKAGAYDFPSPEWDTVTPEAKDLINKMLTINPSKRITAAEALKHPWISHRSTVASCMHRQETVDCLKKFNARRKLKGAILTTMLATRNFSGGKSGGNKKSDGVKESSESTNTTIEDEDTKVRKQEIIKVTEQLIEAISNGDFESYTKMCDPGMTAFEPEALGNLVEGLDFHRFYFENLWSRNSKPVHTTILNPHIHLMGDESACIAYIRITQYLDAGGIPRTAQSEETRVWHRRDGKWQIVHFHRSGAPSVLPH

[21] = molecular target: Calcium/calmodulin-dependent protein kinase type II subunit beta (Homo sapiens) (UniProt Q13554); experiment: Inhibition of CAMK2 beta (unknown origin) at 10 uM after 60 mins by ADP-Glo luminescence assay
Sequence of Calcium/calmodulin-dependent protein kinase type II subunit beta (Homo sapiens) (Q13554 whole entry): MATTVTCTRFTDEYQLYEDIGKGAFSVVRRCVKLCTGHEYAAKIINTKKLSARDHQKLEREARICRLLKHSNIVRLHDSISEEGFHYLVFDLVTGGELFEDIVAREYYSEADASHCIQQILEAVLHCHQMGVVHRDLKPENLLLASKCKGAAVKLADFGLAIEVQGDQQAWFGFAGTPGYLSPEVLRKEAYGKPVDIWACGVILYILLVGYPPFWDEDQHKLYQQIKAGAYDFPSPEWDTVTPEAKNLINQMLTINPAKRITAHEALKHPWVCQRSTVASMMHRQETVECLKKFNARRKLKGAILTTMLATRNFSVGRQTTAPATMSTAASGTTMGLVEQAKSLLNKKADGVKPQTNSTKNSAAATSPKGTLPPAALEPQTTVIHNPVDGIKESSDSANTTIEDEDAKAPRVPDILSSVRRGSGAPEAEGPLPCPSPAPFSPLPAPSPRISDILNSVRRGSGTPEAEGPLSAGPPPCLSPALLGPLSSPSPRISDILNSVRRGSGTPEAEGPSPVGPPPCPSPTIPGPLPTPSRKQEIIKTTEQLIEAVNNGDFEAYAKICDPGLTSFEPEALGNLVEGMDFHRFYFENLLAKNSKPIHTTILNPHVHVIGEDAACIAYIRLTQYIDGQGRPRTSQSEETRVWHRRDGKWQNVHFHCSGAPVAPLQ

[22] = molecular target: Calcium/calmodulin-dependent protein kinase type IV (Homo sapiens) (UniProt Q16566); experiment: Inhibition of CAMK4 (unknown origin) at 10 uM after 60 mins by ADP-Glo luminescence assay
[23] = molecular target: Calcium/calmodulin-dependent protein kinase type 1 (Homo sapiens) (UniProt Q14012); experiment: Inhibition of CAMKI (unknown origin) at 10 uM after 60 mins by ADP-Glo luminescence assay
[24] = molecular target: Calcium/calmodulin-dependent protein kinase type II subunit beta (Homo sapiens) (UniProt Q13554); experiment: Inhibition of CAMKII (unknown origin) at 10 uM after 60 mins by ADP-Glo luminescence assay
[25] = molecular target: 5'-AMP-activated protein kinase catalytic subunit alpha-1 (Homo sapiens) (UniProt Q13131); experiment: Inhibition of AMPKA1 (unknown origin) at 10 uM after 60 mins by ADP-Glo luminescence assay
[26] = molecular target: Ribosomal protein S6 kinase beta-1 (Homo sapiens) (UniProt P23443); experiment: Inhibition of S6K (unknown origin) at 10 uM after 60 mins by ADP-Glo luminescence assay
Sequence of Ribosomal protein S6 kinase beta-1 (Homo sapiens) (P23443 whole entry, looked up): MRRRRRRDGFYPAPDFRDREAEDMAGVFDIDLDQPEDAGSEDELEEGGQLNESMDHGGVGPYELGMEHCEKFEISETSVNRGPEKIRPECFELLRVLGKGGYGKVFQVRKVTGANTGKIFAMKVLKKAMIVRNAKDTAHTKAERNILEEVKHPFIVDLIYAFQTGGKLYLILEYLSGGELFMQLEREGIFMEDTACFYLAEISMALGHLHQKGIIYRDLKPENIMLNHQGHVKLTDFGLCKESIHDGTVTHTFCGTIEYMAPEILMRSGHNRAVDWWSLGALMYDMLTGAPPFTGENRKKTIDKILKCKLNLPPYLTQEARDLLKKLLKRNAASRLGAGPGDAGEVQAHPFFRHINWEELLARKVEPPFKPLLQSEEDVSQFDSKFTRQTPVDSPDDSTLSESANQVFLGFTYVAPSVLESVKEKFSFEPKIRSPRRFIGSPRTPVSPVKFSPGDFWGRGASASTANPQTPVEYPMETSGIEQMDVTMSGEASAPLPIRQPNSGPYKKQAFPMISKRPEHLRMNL

[27] = molecular target: Transcription factor HIVEP2 (Homo sapiens) (UniProt P31629); experiment: Inhibition of MBP2 (unknown origin) at 10 uM after 60 mins by ADP-Glo luminescence assay
[28] = molecular target: Serine/threonine-protein kinase 33 (Homo sapiens) (UniProt Q9BYT3); experiment: Inhibition of STK33 (unknown origin) at 10 uM after 60 mins by ADP-Glo luminescence assay
[29] = molecular target: Death-associated protein kinase 1 (Homo sapiens) (UniProt P53355); experiment: Inhibition of DAPK1 (unknown origin) at 10 uM after 60 mins by ADP-Glo luminescence assay
Sequence of Death-associated protein kinase 1 (Homo sapiens) (P53355 whole entry, looked up): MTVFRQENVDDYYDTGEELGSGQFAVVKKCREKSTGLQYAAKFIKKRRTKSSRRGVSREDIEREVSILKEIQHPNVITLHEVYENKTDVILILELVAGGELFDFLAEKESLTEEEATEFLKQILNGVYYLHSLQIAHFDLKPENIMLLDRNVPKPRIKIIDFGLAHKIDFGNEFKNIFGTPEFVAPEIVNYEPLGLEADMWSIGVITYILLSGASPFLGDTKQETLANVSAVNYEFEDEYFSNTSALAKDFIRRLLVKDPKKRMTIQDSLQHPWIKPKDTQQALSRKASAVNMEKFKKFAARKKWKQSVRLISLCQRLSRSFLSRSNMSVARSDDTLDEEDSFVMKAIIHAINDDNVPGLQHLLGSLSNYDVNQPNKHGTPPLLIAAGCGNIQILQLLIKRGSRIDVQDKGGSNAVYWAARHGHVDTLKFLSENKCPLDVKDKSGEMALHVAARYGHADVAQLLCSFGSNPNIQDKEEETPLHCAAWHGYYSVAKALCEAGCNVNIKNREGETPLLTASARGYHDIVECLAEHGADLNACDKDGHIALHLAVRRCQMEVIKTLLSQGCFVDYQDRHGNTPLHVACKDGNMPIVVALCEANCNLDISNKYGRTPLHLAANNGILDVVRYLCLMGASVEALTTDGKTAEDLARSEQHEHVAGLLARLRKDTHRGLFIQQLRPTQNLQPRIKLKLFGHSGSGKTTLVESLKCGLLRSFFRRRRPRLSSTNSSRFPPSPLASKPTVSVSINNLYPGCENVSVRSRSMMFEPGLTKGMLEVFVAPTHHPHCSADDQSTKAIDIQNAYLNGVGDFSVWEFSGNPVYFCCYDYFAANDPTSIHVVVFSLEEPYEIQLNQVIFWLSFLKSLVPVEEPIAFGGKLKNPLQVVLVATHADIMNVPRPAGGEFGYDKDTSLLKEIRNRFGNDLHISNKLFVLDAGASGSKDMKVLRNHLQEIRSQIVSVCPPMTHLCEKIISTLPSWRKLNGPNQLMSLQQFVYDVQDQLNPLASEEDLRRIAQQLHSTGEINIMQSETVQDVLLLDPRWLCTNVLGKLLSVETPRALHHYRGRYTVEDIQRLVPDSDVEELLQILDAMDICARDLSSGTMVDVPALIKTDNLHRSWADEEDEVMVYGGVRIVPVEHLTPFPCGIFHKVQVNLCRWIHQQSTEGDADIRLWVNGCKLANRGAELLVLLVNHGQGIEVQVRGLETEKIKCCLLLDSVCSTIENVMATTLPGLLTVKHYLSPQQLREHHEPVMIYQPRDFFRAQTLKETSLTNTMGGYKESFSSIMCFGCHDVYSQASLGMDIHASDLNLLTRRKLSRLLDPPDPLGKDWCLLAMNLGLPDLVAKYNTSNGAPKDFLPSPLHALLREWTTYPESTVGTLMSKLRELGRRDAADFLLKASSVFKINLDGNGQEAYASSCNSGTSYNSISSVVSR

[30] = molecular target: Serine/threonine-protein kinase D1 (Homo sapiens) (UniProt Q15139); experiment: Inhibition of PKCmu (unknown origin) at 10 uM after 60 mins by ADP-Glo luminescence assay
Sequence of Serine/threonine-protein kinase D1 (Homo sapiens) (Q15139 whole entry): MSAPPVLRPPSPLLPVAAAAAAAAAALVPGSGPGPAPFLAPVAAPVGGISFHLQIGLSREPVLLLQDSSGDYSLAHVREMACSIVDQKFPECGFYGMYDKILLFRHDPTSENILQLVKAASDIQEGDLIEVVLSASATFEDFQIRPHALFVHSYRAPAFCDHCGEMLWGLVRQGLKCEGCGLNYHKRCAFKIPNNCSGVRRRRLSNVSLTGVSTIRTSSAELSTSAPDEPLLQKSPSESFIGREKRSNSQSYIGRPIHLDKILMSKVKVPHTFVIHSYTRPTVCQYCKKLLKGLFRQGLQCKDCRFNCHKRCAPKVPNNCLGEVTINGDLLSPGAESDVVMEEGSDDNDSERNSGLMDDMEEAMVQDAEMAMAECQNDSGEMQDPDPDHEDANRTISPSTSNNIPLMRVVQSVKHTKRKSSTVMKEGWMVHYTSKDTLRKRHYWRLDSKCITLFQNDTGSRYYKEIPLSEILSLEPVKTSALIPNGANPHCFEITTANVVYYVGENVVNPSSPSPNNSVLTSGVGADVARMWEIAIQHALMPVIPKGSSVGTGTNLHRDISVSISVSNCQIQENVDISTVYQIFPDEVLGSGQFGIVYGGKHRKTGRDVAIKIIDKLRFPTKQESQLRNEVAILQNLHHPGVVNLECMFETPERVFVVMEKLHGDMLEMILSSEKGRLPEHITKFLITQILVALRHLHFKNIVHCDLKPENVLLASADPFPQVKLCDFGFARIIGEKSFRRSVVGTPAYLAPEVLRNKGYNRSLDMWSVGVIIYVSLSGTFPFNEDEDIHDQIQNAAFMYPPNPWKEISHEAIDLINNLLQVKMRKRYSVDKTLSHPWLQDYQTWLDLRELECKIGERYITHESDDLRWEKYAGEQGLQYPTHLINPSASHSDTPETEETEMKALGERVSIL

`COc1ccc(Cn2cc(C(=O)N/N=C3/C(=O)Nc4c(C)cccc43)nn2)cc1` gave a Ka (Albumin) of 1.27 ×10⁴ /M, an IC50 (HepG2 [1]) of 8.14 µM and an IC50 (HEK293) of 200 µM. For the same compound, the Activity (HepG2 [2]) was 1.19%, the Activity (MCF7 [3]) was 52.6% and the Activity (MCF7 [4]) was 33.5%. It also gave an Activity (MCF7 [5]) of 13.1%, an Activity (MCF7 [6]) of 0.75% and an Activity (MDA-MB-435S [7]) of 66.3%. The Activity (MDA-MB-435S [8]) was 30.9%, the Activity (MDA-MB-435S [9]) was 2.24% and the Activity (MDA-MB-435S [10]) was 0.59%. The Activity (MDA-MB-435S [11]) was “Active”, the Activity (MCF7 [12]) was “Active” and the Activity (HepG2 [13]) was “Active”. The inhibition [14] was “inactive”, the inhibition [15] was “inactive” and the inhibition [16] was “inactive”. For the same compound, the inhibition [17] was “inactive”, the inhibition [18] was “inactive” and the inhibition [19] was “inactive”. The inhibition [20] was “inactive”, the inhibition [21] was “inactive” and the inhibition [22] was “inactive”. The inhibition [23] was “inactive”, the inhibition [24] was “inactive” and the inhibition [25] was “inactive”. For the same compound, the inhibition [26] was “inactive”, the inhibition [27] was “inactive” and the inhibition [28] was “inactive”. The inhibition [29] was “inactive” and the inhibition [30] was “inactive”.

— ChEMBL document CHEMBL4411296, “Design and development of Isatin-triazole hydrazones as potential inhibitors of microtubule affinity-regulating kinase 4 for the therapeutic management of cell proliferation and metastasis” (Eur J Med Chem, 2019)
